Experimental data from the supplement of paper PMC9663587.

Experiments:
[1] = compound: Cc1nc(-c2cn3c(n2)-c2ccc(-c4cnn(C(C)(C)C(N)=O)c4)cc2OCC3)n(C(C)C)n1 [Taselisib/GDC0032]
[2] = compound: CO[C@@H](C)Cn1c(=O)n(C)c2cnc3ccc(-c4cncc(C(C)(C)O)c4)cc3c21
[3] = compound: T1, CN1CC[C@H](c2c(O)cc(O)c3c(=O)cc(-c4ccccc4Cl)oc23)[C@H](O)C1 [Flavopiridol]
[4] = compound: CN1CCN(CCOc2cc(OC3CCOCC3)c3c(Nc4c(Cl)ccc5c4OCO5)ncnc3c2)CC1 [Saracatinib/AZD0530]
[5] = compound: CN(C)CC[C@H](CSc1ccccc1)Nc1ccc(S(=O)(=O)NC(=O)c2ccc(N3CCN(Cc4ccccc4-c4ccc(Cl)cc4)CC3)cc2)cc1[N+](=O)[O-] [ABT-737]
[6] = compound: CC(=O)c1c(C)c2cnc(Nc3ccc(N4CCN(CCOCCOCCOCCNC(=O)COc5cccc6c5C(=O)N(C5CCC(=O)NC5=O)C6=O)CC4)cn3)nc2n(C2CCCC2)c1=O [BSJ-03-123]; assay: GR value, 72 h; higher = faster growth (1 = untreated, <0 = killing);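 further: breast cancer and non-malignant breast epithelial lines, nine half-log doses, viable cells counted by Hoechst and LIVE/DEAD dye imaging versus time-zero plates and DMSO controls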
[7] = compound: T1, Flavopiridol; assay: as above
[8] = compound: CN(C)C/C=C/C(=O)Nc1ccc(C(=O)Nc2cccc(Nc3ncc(Cl)c(-c4c[nH]c5ccccc45)n3)c2)cc1 [THZ1]; assay: as above
[9] = compound: CN(C)C(=O)c1cc2cnc(Nc3ccc(N4CCNCC4)cn3)nc2n1C1CCCC1 [LEE011/Ribociclib]; assay: as above
[10] = compound: CN(C)C/C=C/C(=O)Nc1ccc(C(=O)N2CCC[C@@H](Nc3ncc(Cl)c(-c4c[nH]c5ccccc45)n3)C2)cc1 [THZ531]; assay: as above
[11] = compound: C=CC(=O)Nc1ccc(C(=O)Nc2[nH]nc3c2CN(C(=O)N[C@H](CN(C)C)c2ccccc2)C3(C)C)cc1 [YKL-5-124]; assay: as above
[12] = compound: CCN1CCN(Cc2ccc(Nc3ncc(F)c(-c4cc(F)c5nc(C)n(C(C)C)c5c4)n3)nc2)CC1; assay: as above
[13] = compound: CCc1cnn2c(NCc3ccc[n+]([O-])c3)cc(N3CCCC[C@H]3CCO)nc12; assay: as above
[14] = compound: CC(=O)c1c(C)c2cnc(Nc3ccc(N4CCNCC4)cn3)nc2n(C2CCCC2)c1=O; assay: as above
[15] = compound: CCOc1cc2ncc(C#N)c(Nc3ccc(OCc4ccccn4)c(Cl)c3)c2cc1NC(=O)/C=C/CN(C)C [Neratinib/HKI272]; assay: as above
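Wherever GR50, 72 h is given: breast cancer and non-malignant breast epithelial cell lines, Deep Dye Drop or Dye Drop imaging, nine half-log doses, GR normalized to time-zero plates and DMSO-only controls.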

MGH312
GR50, 72 h [1]: 0.0386 µM
GR50, 72 h [2]: < 0.001 µM
GR50, 72 h [3]: 0.0997 µM
GR50, 72 h [4]: 0.133 µM
GR50, 72 h [5]: 2.19 µM
GR value ([6]; 0.001 µM): 1.11 GR
GR value ([6]; 0.003162 µM): 1.25 GR
GR value ([6]; 0.01 µM): 1.02 GR
GR value ([6]; 0.03162 µM): 1.22 GR
GR value ([6]; 0.1 µM): 1.12 GR
GR value ([6]; 0.3162 µM): 0.909 GR
GR value ([6]; 1 µM): 0.827 GR
GR value ([6]; 3.162 µM): 0.933 GR
GR value ([6]; 10 µM): -0.91 GR
GR value ([7]; 0.0001 µM): 1.11 GR
GR value ([7]; 0.0003162 µM): 1.12 GR
GR value ([7]; 0.001 µM): 0.95 GR
GR value ([7]; 0.003162 µM): 0.74 GR
GR value ([7]; 0.01 µM): 0.921 GR
GR value ([7]; 0.03162 µM): 0.947 GR
GR value ([7]; 0.1 µM): 0.503 GR
GR value ([7]; 0.3162 µM): -0.521 GR
GR value ([7]; 1 µM): -0.945 GR
GR value ([8]; 0.0001 µM): 1.22 GR
GR value ([8]; 0.0003162 µM): 0.923 GR
GR value ([8]; 0.001 µM): 0.962 GR
GR value ([8]; 0.003162 µM): 0.662 GR
GR value ([8]; 0.01 µM): 0.287 GR
GR value ([8]; 0.03162 µM): -0.892 GR
GR value ([8]; 0.1 µM): -0.905 GR
GR value ([8]; 0.3162 µM): -0.92 GR
GR value ([8]; 1 µM): -0.934 GR
GR value ([9]; 0.001 µM): 1.21 GR
GR value ([9]; 0.003162 µM): 1.13 GR
GR value ([9]; 0.01 µM): 1.08 GR
GR value ([9]; 0.03162 µM): 1.21 GR
GR value ([9]; 0.1 µM): 0.945 GR
GR value ([9]; 0.3162 µM): 0.964 GR
GR value ([9]; 1 µM): 0.894 GR
GR value ([9]; 3.162 µM): 0.89 GR
GR value ([9]; 10 µM): 1.33 GR
GR value ([10]; 0.0001 µM): 1.09 GR
GR value ([10]; 0.0003162 µM): 1.17 GR
GR value ([10]; 0.001 µM): 0.736 GR
GR value ([10]; 0.003162 µM): 1.06 GR
GR value ([10]; 0.01 µM): 1.32 GR
GR value ([10]; 0.03162 µM): 0.538 GR
GR value ([10]; 0.1 µM): -0.928 GR
GR value ([10]; 0.3162 µM): -0.947 GR
GR value ([10]; 1 µM): -0.909 GR
GR value ([11]; 0.001 µM): 0.624 GR
GR value ([11]; 0.003162 µM): 0.384 GR
GR value ([11]; 0.01 µM): 0.182 GR
GR value ([11]; 0.03162 µM): 0.299 GR
GR value ([11]; 0.1 µM): 0.104 GR
GR value ([11]; 0.3162 µM): 0.0051 GR
GR value ([11]; 1 µM): -0.083 GR
GR value ([11]; 3.162 µM): -0.264 GR
GR value ([11]; 10 µM): -0.924 GR
GR value ([12]; 0.001 µM): 1.06 GR
GR value ([12]; 0.003162 µM): 1.17 GR
GR value ([12]; 0.01 µM): 1.15 GR
GR value ([12]; 0.03162 µM): 1.12 GR
GR value ([12]; 0.1 µM): 0.975 GR
GR value ([12]; 0.3162 µM): 1.03 GR
GR value ([12]; 1 µM): 0.836 GR
GR value ([12]; 3.162 µM): 0.308 GR
GR value ([12]; 10 µM): -0.466 GR
GR value ([13]; 0.0001 µM): 0.917 GR
GR value ([13]; 0.0003162 µM): 1.1 GR
GR value ([13]; 0.001 µM): 1.09 GR
GR value ([13]; 0.003162 µM): 1.04 GR
GR value ([13]; 0.01 µM): 0.584 GR
GR value ([13]; 0.03162 µM): -0.846 GR
GR value ([13]; 0.1 µM): -0.927 GR
GR value ([13]; 0.3162 µM): -0.951 GR
GR value ([13]; 1 µM): -0.949 GR
GR value ([14]; 0.0003162 µM): 1.2 GR
GR value ([14]; 0.001 µM): 1.09 GR
GR value ([14]; 0.003162 µM): 1.2 GR
GR value ([14]; 0.01 µM): 1.04 GR
GR value ([14]; 0.03162 µM): 1.09 GR
GR value ([14]; 0.1 µM): 1.21 GR
GR value ([14]; 0.3162 µM): 1.11 GR
GR value ([14]; 1 µM): 1.18 GR
GR value ([14]; 3.162 µM): 1.04 GR
GR value ([15]; 0.0003162 µM): 0.953 GR
GR value ([15]; 0.001 µM): 1.02 GR
GR value ([15]; 0.003162 µM): 0.997 GR
GR value ([15]; 0.01 µM): 0.787 GR
GR value ([15]; 0.03162 µM): 0.606 GR
GR value ([15]; 0.1 µM): 0.489 GR
GR value ([15]; 0.3162 µM): 0.502 GR
GR value ([15]; 1 µM): 0.238 GR
GR value ([15]; 3.162 µM): -0.252 GR

HCC1143
GR50, 72 h [1]: 0.215 µM
GR50, 72 h [2]: 0.286 µM
GR50, 72 h [3]: 0.17 µM
GR50, 72 h [4]: 3.03 µM
GR50, 72 h [5]: 6.19 µM
GR value ([6]; 0.001 µM): 0.905 GR
GR value ([6]; 0.003162 µM): 0.89 GR
GR value ([6]; 0.01 µM): 0.906 GR
GR value ([6]; 0.03162 µM): 0.858 GR
GR value ([6]; 0.1 µM): 0.861 GR
GR value ([6]; 0.3162 µM): 0.797 GR
GR value ([6]; 1 µM): 0.613 GR
GR value ([6]; 3.162 µM): 0.481 GR
GR value ([6]; 10 µM): 0.028 GR
GR value ([7]; 0.0001 µM): 1 GR
GR value ([7]; 0.0003162 µM): 1.04 GR
GR value ([7]; 0.001 µM): 0.952 GR
GR value ([7]; 0.003162 µM): 0.964 GR
GR value ([7]; 0.01 µM): 0.988 GR
GR value ([7]; 0.03162 µM): 0.933 GR
GR value ([7]; 0.1 µM): 0.722 GR
GR value ([7]; 0.3162 µM): 0.175 GR
GR value ([7]; 1 µM): -0.31 GR
GR value ([8]; 0.0001 µM): 0.953 GR
GR value ([8]; 0.0003162 µM): 1.04 GR
GR value ([8]; 0.001 µM): 1 GR
GR value ([8]; 0.003162 µM): 0.989 GR
GR value ([8]; 0.01 µM): 0.908 GR
GR value ([8]; 0.03162 µM): 0.303 GR
GR value ([8]; 0.1 µM): -0.271 GR
GR value ([8]; 0.3162 µM): -0.266 GR
GR value ([8]; 1 µM): -0.31 GR
GR value ([9]; 0.001 µM): 0.856 GR
GR value ([9]; 0.003162 µM): 0.876 GR
GR value ([9]; 0.01 µM): 0.848 GR
GR value ([9]; 0.03162 µM): 0.74 GR
GR value ([9]; 0.1 µM): 0.753 GR
GR value ([9]; 0.3162 µM): 0.712 GR
GR value ([9]; 1 µM): 0.72 GR
GR value ([9]; 3.162 µM): 0.551 GR
GR value ([9]; 10 µM): 0.311 GR
GR value ([10]; 0.0001 µM): 0.974 GR
GR value ([10]; 0.0003162 µM): 0.976 GR
GR value ([10]; 0.001 µM): 1.03 GR
GR value ([10]; 0.003162 µM): 0.957 GR
GR value ([10]; 0.01 µM): 1.02 GR
GR value ([10]; 0.03162 µM): 0.937 GR
GR value ([10]; 0.1 µM): 0.689 GR
GR value ([10]; 0.3162 µM): -0.125 GR
GR value ([10]; 1 µM): -0.228 GR
GR value ([11]; 0.001 µM): 0.423 GR
GR value ([11]; 0.003162 µM): 0.398 GR
GR value ([11]; 0.01 µM): 0.336 GR
GR value ([11]; 0.03162 µM): 0.241 GR
GR value ([11]; 0.1 µM): 0.223 GR
GR value ([11]; 0.3162 µM): 0.183 GR
GR value ([11]; 1 µM): 0.142 GR
GR value ([11]; 3.162 µM): 0.0598 GR
GR value ([11]; 10 µM): -0.0734 GR
GR value ([12]; 0.001 µM): 0.881 GR
GR value ([12]; 0.003162 µM): 0.924 GR
GR value ([12]; 0.01 µM): 0.746 GR
GR value ([12]; 0.03162 µM): 0.604 GR
GR value ([12]; 0.1 µM): 0.406 GR
GR value ([12]; 0.3162 µM): 0.282 GR
GR value ([12]; 1 µM): 0.178 GR
GR value ([12]; 3.162 µM): 0.142 GR
GR value ([12]; 10 µM): -0.0908 GR
GR value ([13]; 0.0001 µM): 0.993 GR
GR value ([13]; 0.0003162 µM): 0.988 GR
GR value ([13]; 0.001 µM): 0.99 GR
GR value ([13]; 0.003162 µM): 1.04 GR
GR value ([13]; 0.01 µM): 0.95 GR
GR value ([13]; 0.03162 µM): -0.238 GR
GR value ([13]; 0.1 µM): -0.231 GR
GR value ([13]; 0.3162 µM): -0.252 GR
GR value ([13]; 1 µM): -0.228 GR
GR value ([14]; 0.0003162 µM): 0.997 GR
GR value ([14]; 0.001 µM): 1.01 GR
GR value ([14]; 0.003162 µM): 1.01 GR
GR value ([14]; 0.01 µM): 0.955 GR
GR value ([14]; 0.03162 µM): 0.793 GR
GR value ([14]; 0.1 µM): 0.652 GR
GR value ([14]; 0.3162 µM): 0.503 GR
GR value ([14]; 1 µM): 0.392 GR
GR value ([14]; 3.162 µM): 0.275 GR
GR value ([15]; 0.0003162 µM): 0.964 GR
GR value ([15]; 0.001 µM): 0.951 GR
GR value ([15]; 0.003162 µM): 0.941 GR
GR value ([15]; 0.01 µM): 0.864 GR
GR value ([15]; 0.03162 µM): 0.876 GR
GR value ([15]; 0.1 µM): 0.761 GR
GR value ([15]; 0.3162 µM): 0.654 GR
GR value ([15]; 1 µM): 0.458 GR
GR value ([15]; 3.162 µM): 0.0904 GR
